Results: patent publication US4002623A, “Anti-inflammatory 1-[3-(dialkylamino)propyl]-2-acylaminobenzimidazoles and 2-acylamino-3-[3-(dialkylamino)-propyl]imidazo[4,5-b]pyridines” (Pfizer Inc., priority 1974, dated 1977)
Where two headings read alike, the source gives them in different places.

Test: adjuvant arthritis screen (Walz et al.), swelling of the non-injected left hind foot on Day 16
Type: in vivo, male inbred Lewis rats
Conditions: Rattus norvegicus, 384 h, daily day -1 through day 15, read-out: Activity Percent Inhibition; for inhibition in vivo at 20 mg/kg: 20 mg./kg. po; for inhibition in vivo at 33 mg/kg: 33 mg./kg. ip
Text: The adjuvant arthritis test described by Walz et al., Ann. Rheum. Dis., 30, 303 (1971) was selected as the method of choice for the determination of the extent of which the novel compounds of the present invention are therapeutically effective as anti-inflammatory agents. Adjuvant arthritis is a crippling deformity in rats resulting from diffuse connective tissue involvement. It is considered by some authorities to be the best available experimental animal model of human rheumatoid arthritis because of its strong clinical and pathological similarities to the human disease and because it can be effectively treated with known anti-arthritic drugs. In this test, lesions resembling those of human rheumatoid arthritis are induced by the injection of complete Freund's adjuvant into one hind leg of a rat. A vigorous inflammatory response occurs in the injected hind leg and reaches its greatest size in about four days. This primary response is followed by the development of a second inflammatory response, appearing about 12-16 days post-injection, that occurs in the uninjected hind leg. While the compounds of the invention are capable of inhibiting the degree of inflammation in both legs, the inhibition of swelling in the uninjected leg at 16 days is considered to be the more meaningful measure of antiarthritic activity.
The adjuvant arthritis screen as described by Walz et al. (Ann. Rheum. Dis., 30: 303 (1971), was used to evaluate the above prepared compounds.
The screen is conducted using male inbred Lewis rats weighing approximately 250 gm. The animals are dosed with drug beginning on day- 1 and continuing daily through day 15. On Day 0, the subplanter surface of the right hind paw is injected with 0.1cc of a 1% suspension of Mycobacterium butyricum (Freunds adjuvant) in Primol (Esso). The swelling of the non-injected left hind foot on Day 16, resulting from immune response to adjuvant, was determined for dosed animals and controls. The foot volume is measured by immersing the paw to the anatomical hairline into a mercury reservoir which is connected to a Statham pressure transducer and a recording device. The results are expressed as % inhibition calculated according to the following equation: [formula] The results obtained are as follows for [drawing 22] where Z is --N(CH3)2 and X is carbon: […]

Question: For `COc1cccc(C(=O)Nc2nc3cc(S(=O)(=O)N(C)C)ccc3n2CCCN2CCN(C)CC2)c1` [3-Methoxyphenyl; SO2 N(CH3)2; H; drawing 24], which inhibition in vivo at 20 mg/kg is on record?
Answer: 13%

Question: With `Cc1cccc(C(=O)Nc2nc3ccccc3n2CCCN(C)C)c1` [3-Methylphenyl; H; H; Z = N(CH3)2] as the molecule, how does the inhibition in vivo at 33 mg/kg read?
Answer: 21%

Question: For `Cc1cccc(C(=O)Nc2nc3ccccc3n2CCCN2CCOCC2)c1` [3-Methylphenyl; H; H; drawing 23], which inhibition in vivo at 33 mg/kg is on record?
Answer: 40%

Question: For `Cc1cccc(C(=O)Nc2nc3ccccc3n2CCCN2CCN(C)CC2)c1` [3-Methylphenyl; H; H; drawing 24], which inhibition in vivo at 33 mg/kg is on record?
Answer: 39%

Question: For `CN1CCN(CCCn2c(NC(=O)c3cccc(C(F)(F)F)c3)nc3cc(C(F)(F)F)ccc32)CC1` [3-Trifluoromethylphenyl; CF3; H; drawing 24, 1-[3-(4-methyl-1-piperazinyl)propyl]-2-(3-trifluoromethylbenzamido)-5-trifluoromethylbenzimidazole], which inhibition in vivo at 10 mg/kg (10 mg./kg. po) is on record?
Answer: 46%

Question: And the inhibition in vivo at 33 mg/kg?
Answer: 83%

Question: Which inhibition in vivo at 20 mg/kg does the source give for `Cc1ccc2c(c1)nc(NC(=O)c1cccc(C(F)(F)F)c1)n2CCCN1CCN(C)CC1` [3-Trifluoromethylphenyl; CH3; H; drawing 24] here?
Answer: 27%

Question: For `CN1CCN(CCCn2c(NC(=O)c3cccc(C(F)(F)F)c3)nc3cc(Cl)c(Cl)cc32)CC1` [3-Trifluoromethylphenyl; Cl; Cl; drawing 24], which inhibition in vivo at 33 mg/kg is on record?
Answer: 74%

Question: Which results are given for `CN1CCN(CCCn2c(NC(=O)c3cccc(C(F)(F)F)c3)nc3cc(Cl)ccc32)CC1` [3-Trifluoromethylphenyl; Cl; H; drawing 24]?
Answer: inhibition in vivo at 10 mg/kg (10 mg./kg. po): 16%; inhibition in vivo at 33 mg/kg: 74%

Question: With `Cc1ccc2nc(NC(=O)c3cccc(C(F)(F)F)c3)n(CCCN3CCN(C)CC3)c2c1` [3-Trifluoromethylphenyl; H; CH3; drawing 24] as the molecule, how does the inhibition in vivo at 20 mg/kg read?
Answer: 21%

Question: Which inhibition in vivo at 33 mg/kg does the source give for `O=C(Nc1nc2ccccc2n1CCCN1CCOCC1)c1cccc(C(F)(F)F)c1` [3-Trifluoromethylphenyl; H; H; drawing 23] here?
Answer: 0%

Question: Which inhibition in vivo at 10 mg/kg (10 mg./kg. po) does the source give for `CN1CCN(CCCn2c(NC(=O)c3cccc(C(F)(F)F)c3)nc3ccccc32)CC1` [3-Trifluoromethylphenyl; H; H; drawing 24] here?
Answer: 18%

Question: What about the inhibition in vivo at 33 mg/kg of the same molecule?
Answer: 79%

Question: Which inhibition in vivo at 20 mg/kg does the source give for `CN1CCN(CCCn2c(NC(=O)c3cccc(C(F)(F)F)c3)nc3cccnc32)CC1` [3-Trifluoromethylphenyl; H; H; drawing 25, 2-(3-trifluoromethylbenzamido)-3-[3-(4-methyl-1-piperazino)propyl]imidazo[4,5-b]pyridine] here?
Answer: 39%

Question: For `O=C(Nc1nc2ccccc2n1CCCN1CCCCC1)c1cccc(C(F)(F)F)c1` [3-Trifluoromethylphenyl; H; H; drawing 26], which inhibition in vivo at 33 mg/kg is on record?
Answer: 30%

Question: Which inhibition in vivo at 10 mg/kg (10 mg./kg. ip) does the source give for `O=C(Nc1nc2ccccc2n1CCCN1CCN(Cc2ccccc2)CC1)c1cccc(C(F)(F)F)c1` [3-Trifluoromethylphenyl; H; H; drawing 27] here?
Answer: 35%

Question: With `O=C(Nc1nc2ccccc2n1CCCN1CCNCC1)c1cccc(C(F)(F)F)c1` [3-Trifluoromethylphenyl; H; H; drawing 28] as the molecule, how does the inhibition in vivo at 10 mg/kg (10 mg./kg. po) read?
Answer: 13%

Question: Which results are given for `COc1ccc2c(c1)nc(NC(=O)c1cccc(C(F)(F)F)c1)n2CCCN1CCN(C)CC1` [3-Trifluoromethylphenyl; OCH3; H; drawing 24]?
Answer: inhibition in vivo at 10 mg/kg (10 mg./kg. po): -5%; inhibition in vivo at 33 mg/kg: 57%

Question: Which inhibition in vivo at 33 mg/kg does the source give for `CN1CCN(CCCn2c(NC(=O)c3ccc(Cl)cc3)nc3cc(C(F)(F)F)ccc32)CC1` [4-Chlorophenyl; CF3; H; drawing 24] here?
Answer: 47%

Question: For `Cc1cc2nc(NC(=O)c3ccc(Cl)cc3)n(CCCN3CCN(C)CC3)c2cc1C` [4-Chlorophenyl; CH3; CH3; drawing 24], which inhibition in vivo at 20 mg/kg is on record?
Answer: 30%

Question: Which inhibition in vivo at 20 mg/kg does the source give for `Cc1ccc2c(c1)nc(NC(=O)c1ccc(Cl)cc1)n2CCCN1CCN(C)CC1` [4-Chlorophenyl; CH3; H; drawing 24] here?
Answer: 27%

Question: For `CN1CCN(CCCn2c(NC(=O)c3ccc(Cl)cc3)nc3cc(Cl)ccc32)CC1` [4-Chlorophenyl; Cl; H; drawing 24], which inhibition in vivo at 10 mg/kg (10 mg./kg. po) is on record?
Answer: -10%

Question: And the inhibition in vivo at 33 mg/kg?
Answer: 63%
